Experimental data: patent US9303015B2, “Heteroaryl linked quinolinyl modulators of RORγt” (Janssen Pharmaceutica NV, priority 2012, dated 2016)
Where a name gives a salt, the structure may show the parent alone.

Columns and labels:
[1] = target: human RORγt ligand binding domain (RORγt LBD) (Homo sapiens (Human), UniProt P51449); assay: RORγt ThermoFluor assay (thermal shift, binding affinity); conditions: estimated from thermal shift concentration response
Method: This approach is applicable to a wide variety of systems, and rigorous in theoretical interpretation through quantitation of equilibrium binding constants (KD).
The shift in the melting point described as a ΔTm is proportional to the concentration and affinity of the ligand.
ThermoFluor® experiments were carried out using instruments owned by Janssen Research and Discovery, L.L.C. through its acquisition of 3-Dimensional Pharmaceuticals, Inc. 1,8-ANS (Invitrogen) was used as a fluorescent dye. Protein and compound solutions are dispensed into black 384-well polypropylene PCR microplates (Abgene) and overlayed with silicone oil (1 μL, Fluka, type DC 200) to prevent evaporation.
Bar-coded assay plates are robotically loaded onto a thermostatically controlled PCR-type thermal block and then heated at a typical ramp-rate of 1° C./min for all experiments. Fluorescence was measured by continuous illumination with UV light (Hamamatsu LC6) supplied via fiber optic and filtered through a band-pass filter (380-400 nm; >60D cutoff). Fluorescence emission of the entire 384-well plate was detected by measuring light intensity using a CCD camera (Sensys, Roper Scientific) filtered to detect 500±25 nm, resulting in simultaneous and independent readings of all 384 wells. Images were collected at each temperature, and the sum of the pixel intensity in a given area of the assay plate was recorded versus temperature. Reference wells contained RORγt without compounds, and the assay conditions were as follows: • 0.065 mg/mL RORγt • 60 μM 1,8-ANS • 100 mM Hepes, pH 7.0 • 10 mM NaCl • 2.5 mM GSH • 0.002% Tween-20
Project compounds were arranged in a pre-dosed mother plate (Greiner Bio-one) wherein compounds are serially diluted in 100% DMSO by 1:2 from a high concentration of 10 mM over 12 columns within a series (column 12 is a reference well containing DMSO, no compound). The compounds were robotically dispensed directly into assay plates (1x=[…]) using a Hummingbird capillary liquid handling instrument (Digilab). Following compound dispense, protein and dye in buffer was added to achieve the final assay volume of 3 μL, followed by 1 μL of silicone oil.

[2] = system: IL-17 production by CD4 T cells; assay: Human Th17 assay; assay type: cell-based; conditions: Homo sapiens, CD4+ T, 72 h, IL-17 in supernatant after 3 days, human CD4+ T cells under Th17 differentiation
Excerpt: The human Th17 assay tests the effect of RORγt modulatory compounds on IL-17 production by CD4 T cells under conditions which favor Th17 differentiation.
Total CD4^+ T cells were isolated from the peripheral blood mononuclear cells (PBMC) of healthy donors using a CD4^+ T cell isolation kit II, following the manufacturer's instructions (Miltenyi Biotec). Cells were resuspended in a medium of RPMI-1640 supplemented with 10% fetal bovine serum, penicillin, streptomycin, glutamate, and β-mercaptoethanol and were added to 96-well plates at 1.5×10^5 per 100 μL per well. 50 μL of compound at titrated concentrations in DMSO were added into each well at final DMSO concentration at 0.2%. Cells were incubated for 1 hour, then 50 μL of Th17 cell differentiation medium was added to each well. The final concentrations of antibodies and cytokines (R&D Systems) in differentiation medium were: 3×10^6/mL anti-CD3/CD28 beads (prepared using human T cell activation/expansion kit, Miltenyi Biotec), 10 μg/mL anti-IL4, 10 μg/mL anti-IFNγ, 10 ng/mL IL113, 10 ng/mL IL23, 50 ng/mL IL6, 3 ng/mL TGFβ and 20 U/mL IL2. Cells were cultured at 37° C. and 5% CO2 for 3 days. Supernatants were collected and the accumulated IL-17 in culture was measured by using MULTI-SPOT® Cytokine Plate following manufacture's instruction (Meso Scale Discovery). The plate was read using Sector Imager 6000, and IL-17 concentration was extrapolated from the standard curve. The IC50s were determined by GraphPad.

human RORγt LBD = human RORγt LBD (Homo sapiens (Human), UniProt P51449); assay: RORγt reporter assay (GAL4-RORγt LBD luciferase, HEK293T cells); assay type: cell-based; conditions: for IC50: HEK293T cells, 24 hours compound treatment; for inhibition at 6 µM: HEK-293T, read-out: RORγt reporter Assay, % inhibition @ 6 μM, 6 μM, HEK293T cells
Sequence of human RORγt LBD (P51449 258-518): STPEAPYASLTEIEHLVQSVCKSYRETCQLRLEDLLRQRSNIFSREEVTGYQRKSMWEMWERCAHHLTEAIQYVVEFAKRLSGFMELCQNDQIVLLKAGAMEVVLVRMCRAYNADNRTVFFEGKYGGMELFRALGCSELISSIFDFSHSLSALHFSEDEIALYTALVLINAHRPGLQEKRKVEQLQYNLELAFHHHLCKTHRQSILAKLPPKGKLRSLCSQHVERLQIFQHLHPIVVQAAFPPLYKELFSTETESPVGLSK

Sequence of human RORγt ligand binding domain (RORγt LBD) (P51449 other isoform, or with tags, fused parts or gaps): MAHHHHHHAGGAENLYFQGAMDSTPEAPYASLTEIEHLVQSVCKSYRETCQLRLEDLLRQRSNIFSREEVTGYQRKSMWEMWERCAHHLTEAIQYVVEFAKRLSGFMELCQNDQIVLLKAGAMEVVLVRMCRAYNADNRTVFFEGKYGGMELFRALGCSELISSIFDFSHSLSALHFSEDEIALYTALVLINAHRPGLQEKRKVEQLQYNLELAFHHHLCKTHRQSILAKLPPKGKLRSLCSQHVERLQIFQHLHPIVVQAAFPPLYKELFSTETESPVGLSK

| SMILES | Kd [1] [µM] | IC50 [2] [µM] | IC50 (human RORγt LBD) [µM] | inhibition at 6 µM (human RORγt LBD) [%] |
| --- | --- | --- | --- | --- |
| CCN(CC)c1nc2ccc(C(O)(c3ccc(Cl)cc3)c3cncn3C)cc2c(Cl)c1Oc1ccccc1 (stereo not shown) [Example 3a, (4-Chloro-2-(diethylamino)-3-phenoxyquinolin-6-yl)(4-chlorophenyl)(1-methyl-1H-imidazol-5-yl)methanol] | 0.059 | 0.2 | 0.12 | 96 |
| CN(C)c1nc2ccc(C(O)(c3ccc(Cl)cc3)c3cncn3C)cc2c(Cl)c1Oc1ccccc1 (stereo not shown) [Example 16, (4-Chloro-2-(dimethylamino)-3-phenoxyquinolin-6-yl)(4-chlorophenyl)(1-methyl-1H-imidazol-5-yl)methanol] | 0.031 | 0.1 | 0.36 | 94 |
| Cn1cncc1C(O)(c1ccc(Cl)cc1)c1ccc2nc(C#N)c(Oc3ccccc3)c(C#N)c2c1 (stereo not shown) [Example 20, 6-((4-chlorophenyl)(hydroxy)(1-methyl-1H-imidazol-5-yl)methyl)-3-phenoxyquinoline-2,4-dicarbonitrile.TFA] | 0.0057 | 0.04 | 0.11 | 97 |
| CCOc1nc2ccc(C(O)(c3cccnc3)c3cccc(Cl)c3)cc2c(Cl)c1N(C)c1ccccc1 (stereo not shown) [Example 36, (4-Chloro-2-ethoxy-3-(methyl(phenyl)amino)quinolin-6-yl)(3-chlorophenyl) (pyridin-3-yl)methanol.TFA] | 0.032 | 0.16 | 0.089 | 89 |
| CCN(CC)c1nc2ccc(C(O)(c3ccc(Cl)cc3)c3cncn3C)cc2c(Cl)c1Nc1ccccc1 (stereo not shown) [Example 45, (4-Chloro-2-(diethylamino)-3-(phenylamino)quinolin-6-yl)(4-chlorophenyl)(1-methyl-1H-imidazol-5-yl)methanol.TFA] | 0.27 |  | 0.81 | 91 |
